Data taken from patent publication US20260248702A1, “Composition Comprising a UV-Filter Stabilizer” (Symrise AG, priority 2022, published 2026).
Each block holds one molecule with its values, some of them ahead of it.

Assay: Photostability test: E1%/cm absorbance measurement before and after irradiation with 5 MED
Assay type: physicochemical
Conditions: for Photostability result in words / Lost (%) after irradiation with 5 MED (1,250 J/m^2) / E max (nm): E1%/cm solution; for Lost (%) after irradiation with 5 MED (1,250 J/m^2): absorbance loss at E max; for E max (nm): wavelength of maximum absorbance; for loss of the photo-unstable UV-filter (absorbance loss), UV-filter alone versus in combination with the MAA compound: after irradiation with 5 MED, no wavelength given in the sentence; for photo-stabilizing effect in words: summary statements on the photostability test
Method: The photostability of a UV-filter can be determined in vitro using absorbance measures, by which the loss in absorbance of the UV-filter before and after irradiation, for example with 5 MED, is measured. The loss in absorbance of the UV-filter goes along with the degradation of the UV-filter by one or more photochemical reactions, including photofragmentation, isomerization, tautomerization, photoaddition and the like. UV-filters with an absorbance loss≥20% after irradiation are classified as photo-unstable. Alternatively, the photostability of a UV-filter can be determined by analytical measures, that is by quantitative determination of the amount (i.e. concentration) by which the filter is degraded.
UV-filters are usually tested for photostability to ensure that no degradation of the UV-filter itself or in combination with other substances takes place.
The UV-filter stabilizing properties of mycosporine-like amino acid compounds were explored by comparing the behaviour of UV-filter alone relative to UV-filters in combination with a certain mycosporine-like amino acid compound.
In the present case single photo-unstable UV-filters as well as formulations of photo-unstable filters with certain mycosporine-like amino acid compounds were subjected to photostability testing, described in detail below, to determine the retention of absorption of UVA and UVB radiation (full spectrum analysis) after exposing the sample to 5 MED (minimal erythema) dose (1 MED=250 J/m^2).
Sample preparation: The substance or the formulation to be tested was dissolved in a suitable solvent. For this purpose, a certain amount of the substance or formulation was transferred by means of an analytical balance/pipette into a graduated flask and filled with the selected solvent. The filling up to the calibration mark of the graduated flask was carried out only after complete dissolution of the substance and temperature control at 20° C.
Preparation of solution E 1%/cm: 100 mg of the substance or formulation to be tested were weighed into a graduated flask and filled up to 100 ml with the corresponding solvent. A clear solution was obtained. If necessary, an ultrasonic bath can be used to improve solubility. For further dilution the sample was adjusted to a temperature of 20° C. 1 ml of the dissolved solution was added into a second graduated 100 ml flask, filled up to 100 ml at a temperature of 20° C. The final concentration of the thus obtained solution was 0.001%. (E1%/cm). This solution was used for absorbance measurement and irradiation. Said solution was transferred to a 10 mm quartz cuvette with closure.
Irradiation: Irradiation of the sample was performed for […] with 700 W/m^2 emitted by an Atlas SUN Test CPS. This corresponds to an amount of energy of 5 MED (minimal erythema) dose (=1,250 J/m^2). At the same time, the temperature of the devise was adjusted to max 30° C. in order to avoid strong heating of the sample.
Measurement: The absorbance measurement of the sample in the quartz cuvette with closure (10 mm) was carried out in a wavelength range of 200 nm to 700 nm with a Lambda 25 UV spectrometer. A blank absorbance test was carried out with the corresponding solvent for preparing the samples as described above. The absorbance measurement of the samples was carried out before (pre-irradiation) and after irradiation emitted by a Atlas SUN Test CPS (see above).
The amplitude of the absorbance curve reflects the degree of protection. The higher the amplitude of the curve, the greater the absorbance and the more protection provided at that wavelength. Within the UVB portion of the spectrum (290 nm to 320 nm) this amplitude correlates with the SPF. The greater the breadth of the curve, the more protection provided against longer wave UV ration. In other words, the greater the breadth of the curve, the broader the spectrum of sun protection provided. […]

[1] = after irradiation with 5 MED (1,250 J/m^2)

SMILES: CCCCC(CC)COC(=O)C=Cc1ccc(OC)cc1 (stereo not drawn) [Ethylhexyl Methoxycinnamate, Ethylhexyl-Methoxycinnamate]
Photostability result in words [1]: Not photostable

SMILES: COc1ccc(/C=C/C(=O)OCCC(C)C)cc1 [Isoamyl p-Methoxycinnamate, Isoamyl-p-Methoxycinnamate]
Absorbance loss at 310 nm (E1%/cm solution (0.001%), after irradiation with 5 MED (1,250 J/m^2), read at 310 nm): 30.5%
Photostability result in words [1]: Not photostable
Lost (%) after irradiation with 5 MED (1,250 J/m^2): 30.50%
E max (nm): 310 nm
loss of the photo-unstable UV-filter (absorbance loss), UV-filter alone versus in combination with the MAA compound: 30.50%
Critical Wavelength (nm) (wavelength at which 90% of the total area under the UV protection curve (280-400 nm) is reached): 324 nm

SMILES: CCOC(=O)CNC1=C/C(=N/c2ccccc2)CC(C)(C)C1 [MAA-1, ethyl 2-[[5,5-dimethyl-3-phen-ylimino-cyclohexen-1-yl]amino] acetate]
Absorbance loss at 321 nm (E1%/cm solution (0.001%), after irradiation with 5 MED (1,250 J/m^2), read at 321 nm): 0.53%
Photostability result in words [1]: Very photostable molecule
photo-stabilizing effect in words: pronounced photo-stabilizing effect

SMILES: COc1ccc(C(=O)CC(=O)c2ccc(C(C)(C)C)cc2)cc1 [Butyl Methoxydibenzoylmethane, Butyl-Methoxydibenzoylmethane or Avobenzone]
Absorbance loss at 358 nm (E1%/cm solution (0.001%), after irradiation with 5 MED (1,250 J/m^2), read at 358 nm): 7.05%
Photostability result in words [1]: photostable in this kind of medium
Lost (%) after irradiation with 5 MED (1,250 J/m^2): 7.05%
E max (nm): 358 nm
loss of the photo-unstable UV-filter (absorbance loss), UV-filter alone versus in combination with the MAA compound: 7.05%

SMILES: COc1ccc(/N=C2\CC(C)(C)CC3=C2SCC(C(=O)O)N3)cc1OC (stereo not drawn) [MAA-13, 8-((3,4-dimethoyxphenyl)-imino)-6,6-dimethyl-3,4,5,6,7,8-hexahydro-2-H-benzol[b][1,4]thiazine-3-car-boxylic acid]
Absorbance loss at 364 nm (E1%/cm solution (0.001%), after irradiation with 5 MED (1,250 J/m^2), read at 364 nm): 5.13%
Photostability result in words [1]: Very photostable molecule
photo-stabilizing effect in words: pronounced photo-stabilizing effect

Further lines, results first:

Photostability result in words [1]: Very photostable molecule
SMILES: CC1(C)CC(NCC(=O)O)=C/C(=N/c2ccccc2)C1 [MAA-20, 2-[(5,5-dimethyl-3-phenyl-imino-cyclohexen-1-yl)-amino]acetic acid]

Absorbance loss at 335 nm (E1%/cm solution (0.001%), after irradiation with 5 MED (1,250 J/m^2), read at 335 nm): 15.03%
Photostability result in words [1]: A photostable molecule
SMILES: CC1(C)CC(NCC(=O)O)=C/C(=N/c2ccc(S(=O)(=O)O)cc2)C1 [MAA-28, 2-[(5,5-dimethyl-3-(4-sulfo-phenyl)imino-cyclohexen-1-yl)amino]acetic acid]
